According to patent US20240269139A1, “COMPOUNDS FOR TARGETED PROTEIN DEGRADATION OF KINASES” (DANA-FARBER CANCER INSTITUTE, INC., priority 2020, published 2024):
Read-outs that look alike come from different tables or passages of the source.

How the values were obtained:
[1] = target: T1, extended human kinome (kinase-like proteins) (Homo sapiens, UniProt P54886); assay: Whole cell quantitative proteomics: extended kinome hits; conditions: Accession P54886
T1 sequence (P54886 1-795): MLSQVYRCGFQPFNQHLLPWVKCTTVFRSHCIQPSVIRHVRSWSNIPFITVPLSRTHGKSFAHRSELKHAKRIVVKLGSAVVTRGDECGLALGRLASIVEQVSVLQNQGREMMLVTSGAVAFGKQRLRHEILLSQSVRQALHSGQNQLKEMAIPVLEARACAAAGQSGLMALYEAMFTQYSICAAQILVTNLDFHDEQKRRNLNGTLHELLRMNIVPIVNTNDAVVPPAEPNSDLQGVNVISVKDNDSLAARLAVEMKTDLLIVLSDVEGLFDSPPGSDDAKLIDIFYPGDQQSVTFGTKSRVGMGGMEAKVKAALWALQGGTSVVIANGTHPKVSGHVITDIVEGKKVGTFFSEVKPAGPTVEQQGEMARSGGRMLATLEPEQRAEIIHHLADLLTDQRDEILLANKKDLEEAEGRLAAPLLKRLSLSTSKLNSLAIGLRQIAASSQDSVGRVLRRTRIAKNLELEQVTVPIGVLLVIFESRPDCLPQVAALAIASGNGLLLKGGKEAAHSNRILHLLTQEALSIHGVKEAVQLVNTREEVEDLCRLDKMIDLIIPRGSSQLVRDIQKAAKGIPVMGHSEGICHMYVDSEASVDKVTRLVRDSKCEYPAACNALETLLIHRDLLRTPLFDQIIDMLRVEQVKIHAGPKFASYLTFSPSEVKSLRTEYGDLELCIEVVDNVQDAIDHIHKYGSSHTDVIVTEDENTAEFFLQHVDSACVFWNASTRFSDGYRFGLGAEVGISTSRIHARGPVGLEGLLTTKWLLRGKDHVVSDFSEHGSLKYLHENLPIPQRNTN
Method: Whole cell multiplexed quantitative proteomics was employed to measure changes in abundance of the proteome in response to treatment with each of the kinase degrader molecules relative to DMSO (Table 1, Appendix I).
Cells were treated with DMSO (biological triplicate) or degrader at indicated dose and time and cells were harvested by centrifugation. […] Precipitated protein was resuspended in 4 M Urea, 50 mM HEPES pH 7.4, followed by dilution to 1 M urea with the addition of 200 mM EPPS, pH 8. Proteins were first digested with LysC (1:50: enzyme:protein) for 12 hours at room temperature. The LysC digestion was diluted to 0.5 M Urea with 200 mM EPPS pH 8 followed by digestion with trypsin (1:50; enzyme:protein) for 6 hours at 37° C. Tandem mass tag (TMT) reagents (Thermo Fisher Scientific) were dissolved in anhydrous acetonitrile (ACN) according to manufacturer's instructions. […] The 10, 11, or 16-plex labeling reactions were performed for 1.5 hours at room temperature and the reaction quenched by the addition of hydroxylamine to a final concentration of 0.3% for 15 minutes at room temperature. The sample channels were combined at a 1:1 ratio, desalted using C18 solid phase extraction cartridges (Waters®) and analyzed by LC-MS for channel ratio comparison. Samples were then combined using the adjusted volumes determined in the channel ratio analysis and dried down in a speed vacuum. The combined sample was then resuspended in 1% formic acid, and acidified (pH 2-3) before being subjected to desalting with C18 SPE (Sep-Pak®, Waters®). Samples were then offline fractionated into 96 fractions by high pH reverse-phase HPLC (Agilent® LC1260) through an aeris peptide xb-c18 column (Phenomenex®) with mobile phase A containing 5% acetonitrile and 10 mM NH4HCO3 in LC-MS grade H2O, and mobile phase B containing 90% acetonitrile and 10 mM NH4HCO3 in LC-MS grade H2O (both pH 8.0). The 96 resulting fractions were then pooled in a non-continuous manner into 24 fractions and desalted using C18 solid phase extraction plates (SOLA®, Thermo Fisher Scientific) followed by subsequent mass spectrometry analysis.
Data were collected using an Orbitrap Fusion™ Lumos™ mass spectrometer (Thermo Fisher Scientific, San Jose, CA, USA) coupled with a Proxeon EASY-nLC™ 1200 LC pump (Thermo Fisher Scientific) or an Orbitrap Eclipse™ Tribrid™ mass spectrometer (Thermo Fisher Scientific, San Jose, CA, USA) coupled with an UltiMate™ 3000 RSLCnano System. Peptides were separated on an EasySpray™ ES803a/ES803a.rev2 75 μm inner diameter microcapillary column (ThermoFisher Scientific).
Data dependent MS2 spectra were acquired in the ion trap with a normalized collision energy (NCE) set at 35%, AGC target set to 1.8×10^4 and a maximum injection time of 120 ms. MS3 scans were acquired in the Orbitrap with HCD collision energy set to 55%. AGC target set to 2×10^5, maximum injection time of 150 ms, resolution at 50,000 and with a maximum synchronous precursor selection (SPS) precursors set to 10.
Proteome Discoverer™ 2.1, 2.2 or 2.4 (Thermo Fisher Scientific) was used for .RAW file processing and controlling peptide and protein level false discovery rates, assembling proteins from peptides, and protein quantification from peptides.

[2] = target: T2, protein kinases (human kinome) (Homo sapiens, UniProt Q9NYY8); type: cell-based; conditions: direction down
T2 sequence (Q9NYY8 1-710): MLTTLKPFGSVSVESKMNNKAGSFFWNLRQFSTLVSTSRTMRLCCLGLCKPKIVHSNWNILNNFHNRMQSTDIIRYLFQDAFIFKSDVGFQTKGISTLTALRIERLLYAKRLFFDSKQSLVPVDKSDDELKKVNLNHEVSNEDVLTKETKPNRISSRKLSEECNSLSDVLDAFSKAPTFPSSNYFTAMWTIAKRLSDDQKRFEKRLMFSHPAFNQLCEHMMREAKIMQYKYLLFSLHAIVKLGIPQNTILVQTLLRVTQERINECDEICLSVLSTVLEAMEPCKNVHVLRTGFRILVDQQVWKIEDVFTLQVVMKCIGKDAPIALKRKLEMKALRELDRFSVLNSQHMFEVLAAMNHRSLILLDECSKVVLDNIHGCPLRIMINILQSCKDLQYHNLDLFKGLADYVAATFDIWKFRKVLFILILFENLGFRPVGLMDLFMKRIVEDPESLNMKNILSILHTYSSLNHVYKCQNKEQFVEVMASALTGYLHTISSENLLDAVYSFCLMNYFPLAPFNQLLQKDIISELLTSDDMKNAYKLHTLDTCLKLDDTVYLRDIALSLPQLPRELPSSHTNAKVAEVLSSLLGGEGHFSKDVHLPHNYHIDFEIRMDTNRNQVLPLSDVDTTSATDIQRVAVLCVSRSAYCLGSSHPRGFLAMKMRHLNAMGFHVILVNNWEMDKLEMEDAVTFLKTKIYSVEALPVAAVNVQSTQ

[3] = tested on: protein kinases (human kinome); type: cell-based; conditions: for logFC PDK3: PDK3 (Q15120-2); for logFC RPS6KA1: RPS6KA1 (Q15418-2); for logFC of SRC: Accession P12931-2; for logFC LCK: accession P06239-3; for logFC LCK / logFC LCK (P06239-3): direction of change down
[4] = target: protein kinases (human kinome) (Homo sapiens, UniProt P11802); type: cell-based
[5] = target: protein kinases (human kinome) (Homo sapiens, UniProt Q2M2I8); type: cell-based
[6] = target: protein kinases (human kinome) (Homo sapiens, UniProt P53671); type: cell-based; conditions: for logFC LIMK2: LIMK2 (P53671), down; for logFC of LIMK2: LIMK2 P53671
[7] = target: protein kinases (human kinome) (Homo sapiens, UniProt P16591); type: cell-based; conditions: for logFC of FER (P16591-1): down; for logFC of FER: FER P16591-1
[8] = AURKB Q96GD4-5, experiment wp131
[9] = AURKB Q96GD4-5, experiment wp137

protein kinases (human kinome) (Homo sapiens, UniProt P16591), sequence (P16591 whole entry): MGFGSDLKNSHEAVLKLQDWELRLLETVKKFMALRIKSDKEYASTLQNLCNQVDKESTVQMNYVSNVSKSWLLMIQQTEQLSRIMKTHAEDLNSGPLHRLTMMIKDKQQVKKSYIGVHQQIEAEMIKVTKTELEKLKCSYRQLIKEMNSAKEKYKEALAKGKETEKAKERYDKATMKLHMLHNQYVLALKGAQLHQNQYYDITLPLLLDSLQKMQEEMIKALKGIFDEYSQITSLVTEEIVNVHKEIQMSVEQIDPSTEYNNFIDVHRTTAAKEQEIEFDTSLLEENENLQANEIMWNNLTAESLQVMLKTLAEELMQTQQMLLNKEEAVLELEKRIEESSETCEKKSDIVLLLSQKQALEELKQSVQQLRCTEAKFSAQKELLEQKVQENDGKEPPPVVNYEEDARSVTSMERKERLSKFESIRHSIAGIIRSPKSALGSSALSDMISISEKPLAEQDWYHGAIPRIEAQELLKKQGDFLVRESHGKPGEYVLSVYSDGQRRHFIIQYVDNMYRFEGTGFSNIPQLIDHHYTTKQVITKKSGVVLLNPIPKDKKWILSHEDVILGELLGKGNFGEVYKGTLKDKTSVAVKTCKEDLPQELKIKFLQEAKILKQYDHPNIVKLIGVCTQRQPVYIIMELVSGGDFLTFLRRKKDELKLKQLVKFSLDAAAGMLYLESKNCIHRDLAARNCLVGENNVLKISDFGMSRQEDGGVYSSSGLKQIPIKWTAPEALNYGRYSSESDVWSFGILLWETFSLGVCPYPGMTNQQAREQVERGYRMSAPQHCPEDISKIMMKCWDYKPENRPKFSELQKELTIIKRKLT
protein kinases (human kinome) (Homo sapiens, UniProt P11802), sequence (P11802 whole entry): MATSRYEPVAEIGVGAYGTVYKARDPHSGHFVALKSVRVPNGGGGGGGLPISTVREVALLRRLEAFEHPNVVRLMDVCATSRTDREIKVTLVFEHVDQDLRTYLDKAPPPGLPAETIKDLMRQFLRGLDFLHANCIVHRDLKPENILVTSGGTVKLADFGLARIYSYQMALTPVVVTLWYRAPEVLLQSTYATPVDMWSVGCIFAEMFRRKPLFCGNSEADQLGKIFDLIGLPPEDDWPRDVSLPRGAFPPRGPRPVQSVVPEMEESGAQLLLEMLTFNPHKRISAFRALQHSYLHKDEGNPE
protein kinases (human kinome) (Homo sapiens, UniProt Q2M2I8), sequence (Q2M2I8 whole entry): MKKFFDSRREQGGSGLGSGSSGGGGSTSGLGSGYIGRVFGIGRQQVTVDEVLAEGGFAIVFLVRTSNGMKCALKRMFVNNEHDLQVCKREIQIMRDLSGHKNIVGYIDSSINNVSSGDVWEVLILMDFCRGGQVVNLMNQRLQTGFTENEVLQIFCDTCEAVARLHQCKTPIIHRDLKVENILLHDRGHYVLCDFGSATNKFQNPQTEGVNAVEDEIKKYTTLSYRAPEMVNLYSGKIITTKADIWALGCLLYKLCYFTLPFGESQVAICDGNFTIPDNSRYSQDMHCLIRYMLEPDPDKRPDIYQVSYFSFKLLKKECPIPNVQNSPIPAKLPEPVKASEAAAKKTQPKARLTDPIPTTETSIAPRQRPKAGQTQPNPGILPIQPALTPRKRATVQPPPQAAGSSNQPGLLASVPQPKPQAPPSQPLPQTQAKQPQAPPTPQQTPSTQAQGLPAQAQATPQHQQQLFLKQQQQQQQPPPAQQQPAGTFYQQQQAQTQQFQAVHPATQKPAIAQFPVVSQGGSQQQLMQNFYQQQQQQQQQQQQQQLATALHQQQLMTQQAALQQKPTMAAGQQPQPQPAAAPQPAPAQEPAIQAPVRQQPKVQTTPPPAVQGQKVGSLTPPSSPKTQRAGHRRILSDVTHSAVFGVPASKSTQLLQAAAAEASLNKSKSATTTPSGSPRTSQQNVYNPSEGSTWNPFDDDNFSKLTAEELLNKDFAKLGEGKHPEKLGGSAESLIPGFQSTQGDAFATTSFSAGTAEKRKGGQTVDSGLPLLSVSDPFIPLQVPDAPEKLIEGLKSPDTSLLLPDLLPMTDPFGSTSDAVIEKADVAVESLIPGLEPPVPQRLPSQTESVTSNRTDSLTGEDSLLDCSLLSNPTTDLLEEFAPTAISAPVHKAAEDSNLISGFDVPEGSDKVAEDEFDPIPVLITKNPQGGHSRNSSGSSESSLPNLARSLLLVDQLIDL
protein kinases (human kinome) (Homo sapiens, UniProt P53671), sequence (P53671 whole entry): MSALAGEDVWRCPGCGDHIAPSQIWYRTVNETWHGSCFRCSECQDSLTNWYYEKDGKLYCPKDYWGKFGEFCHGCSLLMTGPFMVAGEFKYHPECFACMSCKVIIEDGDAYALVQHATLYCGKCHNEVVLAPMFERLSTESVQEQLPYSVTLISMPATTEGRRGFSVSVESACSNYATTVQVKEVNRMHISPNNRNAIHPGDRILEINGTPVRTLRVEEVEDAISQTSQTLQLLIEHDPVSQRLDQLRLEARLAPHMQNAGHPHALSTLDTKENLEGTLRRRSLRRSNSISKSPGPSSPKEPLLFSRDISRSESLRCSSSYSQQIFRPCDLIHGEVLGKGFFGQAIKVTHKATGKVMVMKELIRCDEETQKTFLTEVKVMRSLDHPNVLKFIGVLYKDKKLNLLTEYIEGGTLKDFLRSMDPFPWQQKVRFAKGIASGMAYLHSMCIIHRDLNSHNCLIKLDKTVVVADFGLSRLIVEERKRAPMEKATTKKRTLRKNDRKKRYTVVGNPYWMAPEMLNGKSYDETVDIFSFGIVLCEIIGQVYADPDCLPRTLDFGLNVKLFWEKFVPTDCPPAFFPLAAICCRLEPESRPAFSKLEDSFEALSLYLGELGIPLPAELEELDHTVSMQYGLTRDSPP

CC(C)(C)c1nc(-c2cccc(NS(=O)(=O)c3c(F)cccc3F)c2F)c(-c2ccnc(NCCOCCNC(=O)CCOCCOCCNc3cccc4c3CN(C3CCC(=O)NC3=O)C4=O)n2)s1 (stereo not drawn) [DD.03.107]
logFC ALDH18A1 ([1]; experiment wp147, 1 uM): −0.6536
logFC ALDH18A1 ([1]; experiment wp147, 2 uM): −0.7374
logFC ALDH18A1 ([1]; experiment wp147, 4 uM): −1.326
logFC FASTKD2 (Q9NYY8) ([2]; Experiment wp147, 1 uM): −0.7236
logFC FASTKD2 (Q9NYY8) ([2]; Experiment wp147, 2 uM): −0.6784
logFC FASTKD2 (Q9NYY8) ([2]; Experiment wp147, 4 uM): −1.273
logFC ([3]; ACAD10 (Q6JQN1-5), experiment wp147, 1 uM): −0.5536
logFC ([3]; ACAD10 (Q6JQN1-5), experiment wp147, 2 uM): −0.5234
logFC ([3]; ACAD10 (Q6JQN1-5), experiment wp147, 4 uM): −1.061
logFC ([3]; GK P32189-3, experiment wp147, 1 uM): −0.4979
logFC ([3]; GK P32189-3, experiment wp147, 2 uM): −0.4324
logFC ([3]; GK P32189-3, experiment wp147, 4 uM): −0.7592
logFC PDK3 ([3]; experiment wp147, 1 uM): −0.5119
logFC PDK3 ([3]; experiment wp147, 2 uM): −0.5406
logFC PDK3 ([3]; experiment wp147, 4 uM): −1.004
logFC PDK3 (Q15120-2) ([3]; experiment wp147, 1 uM): −0.5119
logFC PDK3 (Q15120-2) ([3]; experiment wp147, 2 uM): −0.5406
logFC PDK3 (Q15120-2) ([3]; experiment wp147, 4 uM): −1.004

O=C(COc1cccc2c1C(=O)N(C1CCC(=O)NC1=O)C2=O)NCCCCCCCC(=O)NC1(c2ccc(-c3nc4ccn5c(=O)[nH]nc5c4cc3-c3ccccc3)cc2)CCC1 (stereo not drawn) [INY.01.140.1]
logFC ALDH18A1 ([1]; experiment wp081): −0.4491
logFC FASTKD2 (Q9NYY8) ([2]; Experiment wp081): −0.4053
logFC PDK3 ([3]; experiment wp081): −0.3755
logFC PDK3 (Q15120-2) ([3]; experiment wp081): −0.3755

CNC(=O)c1ccccc1Nc1cc(Nc2ccc(N3CCN(CCOCCOCCNC(=O)CNc4cccc5c4C(=O)N(C4CCC(=O)NC4=O)C5=O)CC3)cc2OC)ncc1C(F)(F)F (stereo not drawn) [MFH.5.103.1]
logFC ALDH18A1 ([1]; experiment wp076): −0.4191
logFC RPS6KA1 ([3]; experiment wp076): −1.583
logFC RPS6KA1 (Q15418-2) ([3]; experiment wp076): −1.583

CC(C)S(=O)(=O)c1ccccc1Nc1nc(Nc2ccc(N3CCN(CCOCCOCCNC(=O)CNc4cccc5c4C(=O)N(C4CCC(=O)NC4=O)C5=O)CC3)cc2)ncc1Cl (stereo not drawn) [TL12.186]
logFC CDK4 (P11802) ([4]; experiment wp016): −0.9166
logFC CDK4 (P11802) ([4]; experiment wp131): −1.186
logFC CDK4 (P11802) ([4]; experiment wp137): −1.173
logFC AAK1 ([5]; AAK1 (Q2M218-1), experiment wp016, down): −1.338
logFC AAK1 ([5]; AAK1 (Q2M218-1), experiment wp131, down): −1.52
logFC AAK1 ([5]; AAK1 (Q2M218-1), experiment wp137, down): −1.31
logFC AAK1 ([5]; AAK1, accession Q2M218-1, experiment wp016, direction of change down): −1.338
logFC AAK1 ([5]; AAK1, accession Q2M218-1, experiment wp131, direction of change down): −1.52
logFC AAK1 ([5]; AAK1, accession Q2M218-1, experiment wp137, direction of change down): −1.31
logFC LIMK2 ([6]; experiment wp016): −0.7395
logFC LIMK2 ([6]; experiment wp131): −1.323
logFC LIMK2 ([6]; experiment wp137): −1.179
logFC of LIMK2 ([6]; experiment wp016): −0.7395
logFC of LIMK2 ([6]; experiment wp131): −1.323
logFC of LIMK2 ([6]; experiment wp137): −1.179
logFC FASTKD2 (Q9NYY8) ([2]; Experiment wp137): −0.3625
logFC [3, 8]: −0.9938
logFC AURKB [3, 8]: −0.9938
logFC [3, 9]: −0.9711
logFC AURKB [3, 9]: −0.9711
logFC BUB1B ([3]; Accession O60566-3, experiment wp131, direction down): −0.541
logFC BUB1B ([3]; Accession O60566-3, experiment wp137, direction down): −0.5516
logFC of SRC ([3]; experiment wp016): −0.3573
logFC of SRC ([3]; experiment wp131): −0.7777
logFC of SRC ([3]; experiment wp137): −0.5738
logFC CSNK1D ([3]; Accession P48730-2, experiment wp137, direction down): −0.4721
logFC of CDK17 ([3]; Accession Q00537-2, experiment wp137): −0.7026
logFC BUB1B ([3]; BUB1B (O60566-3), experiment wp131): −0.541
logFC BUB1B ([3]; BUB1B (O60566-3), experiment wp137): −0.5516
logFC CSNK1D ([3]; CSNK1D P48730-2, experiment wp137): −0.4721
logFC PRKAA1 (Q13131-2) ([3]; Experiment wp016, direction down): −0.434
logFC PRKAA1 (Q13131-2) ([3]; Experiment wp131, direction down): −0.5988
logFC PRKAA1 (Q13131-2) ([3]; Experiment wp137, direction down): −0.641
logFC LCK ([3]; experiment wp016): −0.7129
logFC LCK ([3]; experiment wp131): −1.455
logFC LCK ([3]; experiment wp137): −1.373
logFC ([3]; MARK2 Q7KZI7-14, experiment wp131): −0.4868
logFC ([3]; PIP5K1A (Q99755-3), experiment wp131): −0.3436
logFC ([3]; PIP5K1A (Q99755-3), experiment wp137): −0.4526
logFC RPS6KA1 ([3]; experiment wp137): −0.4514
logFC CDK9 (P50750-2) ([3]; experiment wp016): −0.6414
logFC PRKAA1 (Q13131-2) ([3]; experiment wp016): −0.434
logFC LCK (P06239-3) ([3]; experiment wp016): −0.7129
logFC ABL2 (P42684-5) ([3]; experiment wp131): −0.8023
logFC CDK9 (P50750-2) ([3]; experiment wp131): −1.451
logFC PRKAA1 (Q13131-2) ([3]; experiment wp131): −0.5988
logFC of ABL2 (P42684-5) ([3]; experiment wp131): −0.8023
logFC of MARK2 (Q7KZI7-14) ([3]; experiment wp131): −0.4868
logFC LCK (P06239-3) ([3]; experiment wp131): −1.455
logFC CDK9 (P50750-2) ([3]; experiment wp137): −1.511
logFC PRKAA1 (Q13131-2) ([3]; experiment wp137): −0.641
logFC RPS6KA1 (Q15418-2) ([3]; experiment wp137): −0.4514
logFC of CDK17 (Q00537-2) ([3]; experiment wp137): −0.7026
logFC LCK (P06239-3) ([3]; experiment wp137): −1.373
logFC of FER (P16591-1) ([7]; Experiment wp016): −2.727
logFC of FER (P16591-1) ([7]; Experiment wp131): −2.583
logFC of FER (P16591-1) ([7]; Experiment wp137): −2.329
logFC of FER ([7]; experiment wp016): −2.727
logFC of FER ([7]; experiment wp131): −2.583
logFC of FER ([7]; experiment wp137): −2.329

C=CCn1c(=O)c2cnc(Nc3ccc(N4CCN(CCCNc5cccc6c5C(=O)N(C5CCC(=O)NC5=O)C6=O)CC4)cc3)nc2n1-c1cccc(C(C)(C)O)n1 (stereo not drawn) [ZNL.02.096]
logFC ALDH18A1 ([1]; experiment wp118): −0.4405
logFC FASTKD2 (Q9NYY8) ([2]; Experiment wp118): −0.4605
logFC ([3]; GK P32189-3, experiment wp056): −0.3867
logFC PDK3 ([3]; experiment wp056): −0.3528
logFC PDK3 (Q15120-2) ([3]; experiment wp056): −0.3528
